How the values were obtained:
Assay type in all cases: cell-based
γH2AX = experiment: Fraction of γH2AX positive cells in taxol treated MCF7 cells (multi-well immunofluorescence imaging)
From the text: (§1) Many cells (typically >1,000) over a very large field of view were imaged. At least two stainings were used simultaneously. An optional third staining, here propidium iodide (PI), was also used as a nuclear locator.
(§2) The cells were imaged in 3 channels which corresponded to the three stainings. The third channel was used for cell profiling. In a first data processing step, cells were automatically identified in the images by their signal and/or shape in one or both of the recorded channels. Alternatively, cells were identified using a nuclear counterstain and then the activator(s) were read. […] From the distributions S1(c) and S2(c), characteristic numbers were derived. For example (at the example of channel 1, same valid for channel 2).
Fraction of positive cells: F1=N1+/N
(§3) The imaging and analysis procedure were repeated for cells which were fixed at different time points t and under influence of different drug doses dd. For every condition (time point and drug dose), the parameters above were determined.
(§4) Hela, MCF7, as well as primary cells from a patient were cultured for growth in this assay. Cells were obtained and seeded initially at ˜100 cells per well/96 well plate . The cells were grown in DMEM, with 10% Fetal Falf Serum, ultra pure, along with 5% Pen/Strep. The cells after being plated were placed in an incubator at […]. with 5% CO2 and grown for a period of 28 hours to allow for adhesion and division . If the cell took to the plate and were growing normally they were allowed to continue for an additional 24 hours. […] Here, the experiment first staining for only one marker using a green label so that the read was unpolluted by any other color that could show cross reactivity with the green (as there is RED, PI staining the nucleus already, which has no cross reactivity), once the data was collected and the data satisfied that the independent signal was reproducible, a double staining was performed by adding the second marker and using a orange dye with a wavelength of 555. […]

p-ATM = experiment: Average p-ATM signal per cell in taxol treated MCF7 cells
From the text: as §1, §2
Average signal of all cells: <S1>
as §3
as §4, with “hours. Cells were then treated with either Taxol, Doxirubicin, or Ionizing Radiation or a combination of all 3.” for “hours.”

MCF7 cells = experiment: Total number of cells N in taxol treated MCF7 cells; details: for killing of cells (total number of cells): all drug doses (10 nm to 5 um)
From the text: as §1, §2, §3
Hela, MCF7, as well as primary cells from a patient were cultured for growth in this assay. Cells were obtained and seeded initially at ˜100 cells per well/96 well plate . The cells were grown in DMEM, with 10% Fetal Falf Serum, ultra pure, along with 5% Pen/Strep. The cells after being plated were placed in an incubator at […]. with 5% CO2 and grown for a period of 28 hours to allow for adhesion and division . If the cell took to the plate and were growing normally they were allowed to continue for an additional 24 hours. Cells were then treated with either Taxol, Doxirubicin, or Ionizing Radiation or a combination of all 3. All drugs were added in the logarithmic titrations shown in the data at time point zero. The cells were then collected (fixed with −20 degree methanol for 7 minutes, washed with PBS, washed again and stored in PBS until the entire plate of titrations were finished. After collection, the nucleus of each cell was stained using PI (far RED) by adding PI for 15 minutes and then washing 3× the cells with sterile PBS . Once the nuclei had been stained, each well was stained for either phosphor ATM or gamma H2AX or both using primary antibodies at a dilution of 1:1000 in a PBS/Block mix for 1 hour at 37 degrees. The cell were then washed 3× with PBS and then treated with the appropriate secondary . Here, the experiment first staining for only one marker using a green label so that the read was unpolluted by any other color that could show cross reactivity with the green (as there is RED, PI staining the nucleus already, which has no cross reactivity), once the data was collected and the data satisfied that the independent signal was reproducible, a double staining was performed by adding the second marker and using a orange dye with a wavelength of 555. […]

CC(=O)O[C@H]1C(=O)[C@@]2(C)[C@H]([C@H](OC(=O)c3ccccc3)[C@]3(O)C[C@H](OC(=O)[C@H](O)[C@@H](NC(=O)c4ccccc4)c4ccccc4)C(C)=C1C3(C)C)[C@]1(OC(C)=O)CO[C@@H]1C[C@@H]2O [Taxol]
time point at which γH2AX fluorescence reaches its lowest point (γH2AX; 5 um dose): 12 h
Emax (γH2AX; Homo sapiens, all 4 doses 10 nm, 100 nm, 1 um and 5 um, 1 hour pulse, 4 hour post treatment time point, read-out: maximum response, induction rate of γH2AX (fraction of γH2AX positive cells)): ~100%
effective on a population (γH2AX; highest dose): 30%
time at which average p-ATM signal per cell is lowest (p-ATM; 5 uM): approximately 4 hours
p-ATM fluorescent signal, initial elevation (maximum) (p-ATM; 5 um dose): ~2300 a.u.
p-ATM fluorescent signal, lowest point (p-ATM; 5 um dose, within 4 hours): ~1000 a.u.
killing of the entire cell population (MCF7 cells; 5 um dose): does not kill the entire population
time point at which cell killing was most effective (MCF7 cells; all drug doses): 4 h
killing of cells (total number of cells) (MCF7 cells): all treatments were effective in killing cells
killing of cells (total number of cells) (MCF7 cells; listed as taxol): kill cells in a titration dependent fashion
